Source: patent publication US20260364215A1, “Radiopharmaceutical Compositions Targeting Ephrin Type-A Receptor 2 and Uses Thereof” (PeptiDream Inc., priority 2022, published 2026)
Numbered stars: 1 amine (or outer) side, 2 acyl side, 3 side chain; on linkers, the order of the positions; unused ones are H or OH. Bridge positions count the residues as written; N and C are the ends. Square brackets hold non-standard residues; d marks the D form. Side chains are listed from the residue outwards. Peptide text beside a SMILES is read from it. * marks the point of attachment. DOTA(Lu) = O=C1CN2CCN3CCN(CC(=O)*)CCN(CC2)CC(=O)[O][Lu]([O]1)[O]C(=O)C3; NH(1-deoxy-D-glucityl) = OC[C@@H](O)[C@@H](O)[C@H](O)[C@@H](O)CN*; DOTA = O=C(O)CN1CCN(CC(=O)O)CCN(CC(=O)*)CCN(CC(=O)O)CC1; Trp(1-Me,7-Cl) = Cn1cc(C[C@H](N)C(=O)O)c2cccc(Cl)c21; dPhe(3-CONH2) = NC(=O)c1cccc(C[C@@H](N)C(=O)O)c1; Piperazinyl(4-CH2COOH) = O=C(O)CN1CCN(*)CC1; Trp(1-Me) = Cn1cc(C[C@H](N)C(=O)O)c2ccccc21; PEG8 = NCCOCCOCCOCCOCCOCCOCCOCCOCCC(=O)O; d(tBuAla) = CC(C)(C)C[C@@H](N)C(=O)O; NMe3Pal = CN[C@@H](Cc1cccnc1)C(=O)O; NMeF = CN[C@@H](Cc1ccccc1)C(=O)O; hCit = NC(=O)NCCCC[C@H](N)C(=O)O; Gly(cBu) = N[C@H](C(=O)O)C1CCC1; NMeE = CN[C@@H](CCC(=O)O)C(=O)O; Aad = N[C@@H](CCCC(=O)O)C(=O)O; Cit = NC(=O)NCCC[C@H](N)C(=O)O; NMeN = CN[C@@H](CC(N)=O)C(=O)O; PEG2 = NCCOCCOCCC(=O)O; CO = O=C([*:1])[*:2]; βAla = NCCC(=O)O

These molecules were tested against T1, Recombinant Human EphA2 Fc Protein (Homo sapiens, UniProt P29317) (assay: Interaction analysis (kinetics, KD) of peptides and conjugates against EphA2 by SPR, Biacore T200, single-cycle kinetics (Examples B15 and B22)). Details: not given.
T1 construct: purchased Elabscience
T1 sequence (P29317 24-534 limits assumed): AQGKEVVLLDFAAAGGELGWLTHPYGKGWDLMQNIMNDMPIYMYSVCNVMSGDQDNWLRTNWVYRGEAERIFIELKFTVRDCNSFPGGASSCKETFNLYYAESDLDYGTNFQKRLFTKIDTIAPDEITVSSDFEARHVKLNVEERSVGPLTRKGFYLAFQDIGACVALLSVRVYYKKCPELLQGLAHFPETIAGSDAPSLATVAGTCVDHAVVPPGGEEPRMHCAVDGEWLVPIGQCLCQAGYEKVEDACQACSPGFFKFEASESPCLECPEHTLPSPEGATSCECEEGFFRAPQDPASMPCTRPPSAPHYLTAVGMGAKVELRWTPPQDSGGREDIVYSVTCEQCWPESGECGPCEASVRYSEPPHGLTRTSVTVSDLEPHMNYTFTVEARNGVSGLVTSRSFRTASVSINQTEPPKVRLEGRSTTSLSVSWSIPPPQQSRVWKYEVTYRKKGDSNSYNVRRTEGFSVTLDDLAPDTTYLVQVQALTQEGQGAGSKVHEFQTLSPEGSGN
Format: binding
Experimental: Example B15. Interaction Analysis by SPR was Performed Using Biacore (Cytiva)
SPR assay was performed using Biacore T200 (Cytiva).
The HBS-P+ buffer (10 mM HEPES (pH7.4), 150 mM NaCl, 0.05% (v/v) Surfactant P20) containing 1% DMSO was used as running buffer. Recombinant Human EphA2 Fc Protein (Fc tag, Elabscience) was captured by Human Antibody Capture kit (Cytiva). Peptide samples in DMSO were diluted with running buffer, and prepared five serial dilutions. Using these serial dilutions, kinetics of peptides against EphA2 was measured at a flow rate of […] at 25 °C. The method adopted for sample measurement was a single-cycle kinetics method. The analysis was conducted using the evaluation software 3.0 provided with Biacore T200. Kinetics fitting was done on the difference data obtained by subtracting the baseline data from sample measurement data. KD values were calculated based on the association rate constant (ka) and dissociation rate constant (kd).
Example B22: Interaction Analysis of Conjugates by SPR was Performed Using Biacore (Cytiva)
SPR assay was performed using Biacore T200 (Cytiva) according to Example B15.

SMILES	Kd
CC(C)C[C@@H]1NC(=O)[C@H](CC(N)=O)NC(=O)[C@H](Cc2cccnc2)N(C)C(=O)[C@@H](Cc2cccc(C(N)=O)c2)NC(=O)CSC[C@@H](C(=O)N[C@@H](CCCCNC(=O)CN2CCN3CCN4CCN(CC2)CC(=O)[O][Lu]([O]C(=O)C3)[O]C(=O)C4)C(N)=O)NC(=O)[C@H](Cc2cn(C)c3ccccc23)NC(=O)[C@H](CCCCNC(N)=O)NC(=O)[C@H](Cc2cn(C)c3c(Cl)cccc23)NC(=O)[C@H](Cc2cccnc2)N(C)C(=O)[C@H](CO)NC1=O [PDC_EphA2-00026601-C301] ({CH2CO}-[dPhe(3-CONH2)][NMe3Pal]NLS[NMe3Pal][Trp(1-Me,7-Cl)][hCit][Trp(1-Me)]CK(DOTA(Lu))-NH2; thioether N-10)	< 1 nM
C[C@H]1NC(=O)CSC[C@@H](C(=O)N[C@H](CCC(=O)O)C(N)=O)NC(=O)[C@H](CCCC(N)=O)NC(=O)[C@H]([C@@H](C)O)NC(=O)[C@H](Cc2cn(C)c3ccccc23)NC(=O)[C@H](CCCCNC(=O)N2CCN(CC(=O)O)CC2)NC(=O)[C@H](Cc2cn(C)c3c(Cl)cccc23)NC(=O)[C@H](CCC(=O)O)N(C)C(=O)[C@H](CCCCNC(=O)[C@@H](CC(C)(C)C)NC(=O)CN2CCN3CCN4CCN(CC2)CC(=O)[O][Lu]([O]C(=O)C3)[O]C(=O)C4)NC(=O)[C@H](C2CCC2)NC(=O)[C@H](CC(N)=O)NC(=O)[C@H](Cc2cccnc2)N(C)C1=O [PDC_EphA2-00027130] ({CH2CO}-[dA][NMe3Pal]N[Gly(cBu)]K([d(tBuAla)-DOTA(Lu)])[NMeE][Trp(1-Me,7-Cl)]K([CO-Piperazinyl(4-CH2COOH)])[Trp(1-Me)]T[Aad](NH2)C[dE]-NH2; thioether N-12)	< 1 nM
C[C@H]1NC(=O)CSC[C@@H](C(=O)N[C@H](CCC(=O)O)C(N)=O)NC(=O)[C@H](CCCC(N)=O)NC(=O)[C@H]([C@@H](C)O)NC(=O)[C@H](Cc2cn(C)c3ccccc23)NC(=O)[C@H](CCCCNC(=O)N2CCN(CC(=O)O)CC2)NC(=O)[C@H](Cc2cn(C)c3c(Cl)cccc23)NC(=O)[C@H](CCC(=O)O)N(C)C(=O)[C@H](CCCCNC(=O)[C@@H](Cc2ccccc2)NC(=O)CN2CCN3CCN4CCN(CC2)CC(=O)[O][Lu]([O]C(=O)C3)[O]C(=O)C4)NC(=O)[C@H](C2CCC2)NC(=O)[C@H](CC(N)=O)NC(=O)[C@H](Cc2cccnc2)N(C)C1=O [PDC_EphA2-00027127] ({CH2CO}-[dA][NMe3Pal]N[Gly(cBu)]K([dF-DOTA(Lu)])[NMeE][Trp(1-Me,7-Cl)]K([CO-Piperazinyl(4-CH2COOH)])[Trp(1-Me)]T[Aad](NH2)C[dE]-NH2; thioether N-12)	< 1 nM

Same assay, conditions: conjugates, Biacore T200 according to Example B15, Table B16; read-out: SPR Kd

SMILES	Kd
CC(C)C[C@@H]1NC(=O)[C@H](CC(N)=O)NC(=O)[C@H](Cc2cccnc2)N(C)C(=O)[C@@H](Cc2cccc(C(N)=O)c2)NC(=O)CSC[C@@H](C(N)=O)NC(=O)[C@H](CCCCNC(=O)CN2CCN(CC(=O)O)CCN(CC(=O)O)CCN(CC(=O)O)CC2)NC(=O)[C@H]([C@@H](C)O)NC(=O)[C@H](Cc2cn(C)c3ccccc23)NC(=O)[C@H](CCC(=O)NC[C@H](O)[C@@H](O)[C@H](O)[C@H](O)CO)NC(=O)[C@H](Cc2cn(C)c3c(Cl)cccc23)NC(=O)[C@H](CC(N)=O)N(C)C(=O)[C@H](CCCC(N)=O)NC1=O.[Lu+3] [PDC_EphA2-00026716] ({CH2CO}-[dPhe(3-CONH2)][NMe3Pal]NL[Aad](NH2)[NMeN][Trp(1-Me,7-Cl)]E(NH(1-deoxy-D-glucityl))[Trp(1-Me)]TK(DOTA)C-NH2; thioether N-12)	< 1 nM
CC(C)[C@@H]1NC(=O)[C@H](Cc2cn(C)c3ccccc23)NC(=O)[C@H](CC(N)=O)N(C)C(=O)[C@H](CCCC(N)=O)NC(=O)[C@H](C2CCC2)NC(=O)[C@H](CC(N)=O)NC(=O)[C@H](Cc2ccccc2)N(C)C(=O)[C@@H](C)NC(=O)CSC[C@@H](C(=O)N[C@H](CCCCNC(=O)CN2CCN(CC(=O)O)CCN(CC(=O)O)CCN(CC(=O)O)CC2)C(=O)O)NC(=O)[C@H](CCCC(N)=O)NC(=O)[C@H]([C@@H](C)O)NC(=O)[C@H](Cc2cn(C)c3ccccc23)NC1=O.[Lu+3] [PDC_EphA2-00026773] ({CH2CO}-[dA][NMeF]N[Gly(cBu)][Aad](NH2)[NMeN][Trp(1-Me)]V[Trp(1-Me)]T[Aad](NH2)C[dK](DOTA)-OH; thioether N-12)	< 1 nM
C[C@H]1NC(=O)CSC[C@@H](C(=O)N[C@H](CCC(=O)O)C(=O)O)NC(=O)[C@H](CCCC(N)=O)NC(=O)[C@H]([C@@H](C)O)NC(=O)[C@H](Cc2cn(C)c3ccccc23)NC(=O)[C@H](CCCCNC(=O)N2CCN(CC(=O)O)CC2)NC(=O)[C@H](Cc2cn(C)c3c(Cl)cccc23)NC(=O)[C@H](CCC(=O)O)N(C)C(=O)[C@H](CCCCNC(=O)CN2CCN(CC(=O)O)CCN(CC(=O)O)CCN(CC(=O)O)CC2)NC(=O)[C@H](C2CCC2)NC(=O)[C@H](CC(N)=O)NC(=O)[C@H](Cc2cccnc2)N(C)C1=O.[Lu+3] [PDC_EphA2-00027103] ({CH2CO}-[dA][NMe3Pal]N[Gly(cBu)]K(DOTA)[NMeE][Trp(1-Me,7-Cl)]K([CO-Piperazinyl(4-CH2COOH)])[Trp(1-Me)]T[Aad](NH2)C[dE]-OH; thioether N-12)	< 1 nM
C[C@@H](O)[C@@H]1NC(=O)[C@H](Cc2cn(C)c3ccccc23)NC(=O)[C@H](CCCCNC(=O)N2CCN(CC(=O)O)CC2)NC(=O)[C@H](Cc2cn(C)c3c(Cl)cccc23)NC(=O)[C@H](CCC(=O)O)N(C)C(=O)[C@H](CCCCNC(=O)CN2CCN(CC(=O)O)CCN(CC(=O)O)CCN(CC(=O)O)CC2)NC(=O)[C@H](C2CCC2)NC(=O)[C@H](CC(N)=O)NC(=O)[C@H](Cc2cccnc2)N(C)C(=O)[C@@H](Cc2cccc(C(N)=O)c2)NC(=O)CSC[C@@H](C(=O)N[C@H](CCC(=O)O)C(=O)O)NC(=O)[C@H](CCCC(N)=O)NC1=O.[Lu+3] [PDC_EphA2-00027104] ({CH2CO}-[dPhe(3-CONH2)][NMe3Pal]N[Gly(cBu)]K(DOTA)[NMeE][Trp(1-Me,7-Cl)]K([CO-Piperazinyl(4-CH2COOH)])[Trp(1-Me)]T[Aad](NH2)C[dE]-OH; thioether N-12)	< 1 nM
CC(C)C[C@@H]1NC(=O)[C@H](CC(N)=O)NC(=O)[C@H](Cc2cccnc2)N(C)C(=O)[C@@H](C)NC(=O)CSC[C@@H](C(=O)NCCC(=O)N[C@H](CCCCNC(=O)CCOCCOCCNC(=O)CCOCCOCCOCCOCCOCCOCCOCCOCCNC(=O)CN2CCN(CC(=O)O)CCN(CC(=O)O)CCN(CC(=O)O)CC2)C(N)=O)NC(=O)[C@H](CCCC(N)=O)NC(=O)[C@H]([C@@H](C)O)NC(=O)[C@H](Cc2cn(C)c3ccccc23)NC(=O)[C@H](CCCCNC(=O)N2CCN(CC(=O)O)CC2)NC(=O)[C@H](Cc2cn(C)c3ccccc23)NC(=O)[C@H](CCC(=O)O)N(C)C(=O)[C@H](CCCC(N)=O)NC1=O.[Lu+3] [PDC_EphA2-00007196-C304] ({CH2CO}-[dA][NMe3Pal]NL[Aad](NH2)[NMeE][Trp(1-Me)]K([CO-Piperazinyl(4-CH2COOH)])[Trp(1-Me)]T[Aad](NH2)C[βAla][dK]([PEG2-PEG8-DOTA])-NH2; thioether N-12)	< 1 nM

Same assay, conditions: peptides, Biacore T200, 25 °C, Table B12; read-out: SPR Kd

Kd	SMILES
< 1 nM	CC(C)C[C@@H]1NC(=O)[C@H](CC(N)=O)NC(=O)[C@H](Cc2cccnc2)N(C)C(=O)[C@@H](Cc2cccc(C(N)=O)c2)NC(=O)CSC[C@@H](C(N)=O)NC(=O)[C@H](CC(N)=O)NC(=O)[C@H]([C@@H](C)O)NC(=O)[C@H](Cc2cn(C)c3ccccc23)NC(=O)[C@H](CCC(=O)NC[C@H](O)[C@@H](O)[C@H](O)[C@H](O)CO)NC(=O)[C@H](Cc2cn(C)c3c(Cl)cccc23)NC(=O)[C@H](Cc2cccnc2)N(C)C(=O)[C@H](CC(N)=O)NC1=O [PDC_EphA2-00026424] ({CH2CO}-[dPhe(3-CONH2)][NMe3Pal]NLN[NMe3Pal][Trp(1-Me,7-Cl)]E(NH(1-deoxy-D-glucityl))[Trp(1-Me)]TNC-NH2; thioether N-12)
< 1 nM	C[C@@H](O)[C@@H]1NC(=O)[C@H](Cc2cn(C)c3ccccc23)NC(=O)[C@H](CCCCNC(=O)N2CCN(CC(=O)O)CC2)NC(=O)[C@H](Cc2cn(C)c3c(Cl)cccc23)NC(=O)[C@H](Cc2cccnc2)N(C)C(=O)[C@H](CCCC(N)=O)NC(=O)[C@H](C2CCC2)NC(=O)[C@H](CC(N)=O)NC(=O)[C@H](Cc2cccnc2)N(C)C(=O)[C@@H](Cc2cccc(C(N)=O)c2)NC(=O)CSC[C@@H](C(N)=O)NC(=O)[C@H](CCCC(N)=O)NC1=O [PDC_EphA2-00019438] ({CH2CO}-[dPhe(3-CONH2)][NMe3Pal]N[Gly(cBu)][Aad](NH2)[NMe3Pal][Trp(1-Me,7-Cl)]K([CO-Piperazinyl(4-CH2COOH)])[Trp(1-Me)]T[Aad](NH2)C-NH2; thioether N-12)
< 1 nM	CC(C)C[C@@H]1NC(=O)[C@H](CC(N)=O)NC(=O)[C@H](Cc2cccnc2)N(C)C(=O)[C@@H](Cc2cccc(C(N)=O)c2)NC(=O)CSC[C@@H](C(N)=O)NC(=O)[C@H](CC(N)=O)NC(=O)[C@H]([C@@H](C)O)NC(=O)[C@H](Cc2cn(C)c3ccccc23)NC(=O)[C@H](CCCNC(N)=O)NC(=O)[C@H](Cc2cn(C)c3c(Cl)cccc23)NC(=O)[C@H](CC(N)=O)N(C)C(=O)[C@H](CC(N)=O)NC1=O [PDC_EphA2-00026426] ({CH2CO}-[dPhe(3-CONH2)][NMe3Pal]NLN[NMeN][Trp(1-Me,7-Cl)][Cit][Trp(1-Me)]TNC-NH2; thioether N-12)
